Literature values as cited in patent publication US20050209250A1, “Therapeutic combinations of atypical antipsychotics with corticotropin releasing factor antagonists” (Pfizer Inc, priority 2004, published 2005).

Legend:
[1] = not given; remark: listed apart in the source

Structure (SMILES): Cl.O.O=C1Cc2cc(CCN3CCN(c4nsc5ccccc45)CC3)c(Cl)cc2N1 [ziprasidone, 5-[2-[4-(1,2-benzisothiazol-3-yl)piperazin-1-yl]ethyl]-6-chloroindolin-2-one hydrochloride hydrate]
- half-life (in vivo): 6 to 7 h
- Oral bioavailability (taken with food): approximately 60%
- protein binding [1]: extensive
